EC50 data for eleven compounds are collected here from patent publication US9556229B2, “Modification of peptides using a bis(thioether)arylbridge approach” (priority 2012, dated 2017).

For assay [1], the system named is MDA-MB-231 breast cancer cell line.
Assay [2] deals with MCF-7 breast cancer cell line. As to the kind of experiment: Cell viability, MCF-7, PrestoBlue assay. It is filed as cell-based. To be noted: NA = not active. On the procedure: To test our theory we decided to focus on Smac multimers. First, we synthesized a small library of Smac compounds (see, Tables 3 and 4) varying in position 4 substituents having general structure N-MeAla-Tle-4-(trans-Bn)-Pro-Xaa-NHCH2CH2—SH (SEQ ID NO:38), which were tested in vitro using MDA-MB-231 and MCF-7 breast cancer cell lines and PrestoBlue™ assay (Invitrogen).

Starred links: 1 amine or outer side, 2 acyl side, 3 side chain; linkers in the order of their positions; H or OH if unused. Non-standard residues stand in square brackets, D forms with d. Residues, ends and D or L forms follow the SMILES beside them. ξ: configuration not given here. Ala(9-anthryl) = N[C@@H](Cc1c2ccccc2cc2ccccc12)C(=O)O; Pro(4R-Bn) = O=C(O)[C@@H]1C[C@@H](Cc2ccccc2)CN1; NMePhg = CN[C@H](C(=O)O)c1ccccc1; Cysteamide = C(CS[*:3])N[*:1]; Chg = N[C@H](C(=O)O)C1CCCCC1; Phg = N[C@H](C(=O)O)c1ccccc1; Tle = CC(C)(C)[C@H](N)C(=O)O; ξDisc = O=C(O)C1NCc2ccccc21; NMeA = CN[C@@H](C)C(=O)O

For the compound `CN[C@@H](C)C(=O)N[C@H](C(=O)N1C[C@H](Cc2ccccc2)C[C@H]1C(=O)N[C@H](C(=O)NCCS)c1ccccc1)C(C)(C)C` [SMAC1, N^MeAla-Tle-(4-Bzl)Pro-Phg-NHCH2CH2SH] (H-[NMeA][Tle][Pro(4R-Bn)][Phg]-Cysteamide; N-terminus assumed), the figures for the EC50 in assay [1] and in assay [2] were 17.2 ± 6.4 µM and 31.2 ± 1.4 µM, respectively.
On the same counts, the results for `CN[C@@H](C)C(=O)N[C@H](C(=O)N1C[C@H](Cc2ccccc2)C[C@H]1C(=O)N(C)[C@H](C(=O)NCCS)c1ccccc1)C(C)(C)C` [SMAC2, N^MeAla-Tle-(4-Bzl)Pro-N^MePhg-NHCH2CH2SH] (H-[NMeA][Tle][Pro(4R-Bn)][NMePhg]-Cysteamide; N-terminus assumed) are 23.8 ± 4.5 µM and 43.6 ± 1.6 µM.
On to `CN[C@@H](C)C(=O)N[C@H](C(=O)N1C[C@H](Cc2ccccc2)C[C@H]1C(=O)NCc1ccc(CC(=O)NCCS)cc1)C(C)(C)C` [SMAC3, N^MeAla-Tle-(4-Bzl)Pro-Amp-NHCH2CH2SH], for which, in assay [1], the response was half-maximal at 14.3 ± 3.2 µM (EC50).
As to `CN[C@@H](C)C(=O)N[C@H](C(=O)N1C[C@H](Cc2ccccc2)C[C@H]1C(=O)N1Cc2ccccc2C1C(=O)NCCS)C(C)(C)C` (stereo partly drawn) [SMAC4, N^MeAla-Tle-(4-Bzl)Pro-Disc-NHCH2CH2SH] (H-[NMeA][Tle][Pro(4R-Bn)][ξDisc]-Cysteamide; N-terminus assumed), the EC50 amounted to 47.1 ± 15.9 µM in assay [1] and 41.6 ± 3.7 µM in assay [2].
In the case of `CN[C@@H](C)C(=O)N[C@H](C(=O)N1C[C@H](Cc2ccccc2)C[C@H]1C(=O)N1c2ccccc2C[C@H]1C(=O)NCCS)C(C)(C)C` [SMAC5, N^MeAla-Tle-(4-Bzl)Pro-Idc-NHCH2CH2SH], the figures for the EC50 in assay [1] and in assay [2] were 68.3 ± 4 µM and 477 ± 48.4 µM, respectively.
On the same counts, the results for `CN[C@@H](C)C(=O)N[C@H](C(=O)N1C[C@H](Cc2ccccc2)C[C@H]1C(=O)N[C@H](C(=O)NCCS)C1CCCCC1)C(C)(C)C` [SMAC6, N^MeAla-Tle-(4-Bzl)Pro-Chg-NHCH2CH2SH] (H-[NMeA][Tle][Pro(4R-Bn)][Chg]-Cysteamide; N-terminus assumed) are 9.8 ± 3.1 µM and 31.2 ± 2.1 µM.
On the same counts, the results for `CN[C@@H](C)C(=O)N[C@H](C(=O)N1C[C@H](Cc2ccccc2)C[C@H]1C(=O)NC[C@H]1CC[C@H](C(=O)NCCS)CC1)C(C)(C)C` [SMAC7, N^MeAla-Tle-(4-Bzl)Pro-Amc-NHCH2CH2SH] are 91.8 ± 16.3 µM and 86.3 ± 10.5 µM.
For `CN[C@@H](C)C(=O)N[C@H](C(=O)N1C[C@H](Cc2ccccc2)C[C@H]1C(=O)N[C@@H](Cc1ccccc1)C(=O)NCCS)C(C)(C)C` [SMAC8, N^MeAla-Tle-(4-Bzl)Pro-Phe-NHCH2CH2SH], in that order: 34.3 ± 6.7 µM and 33.3 ± 1.5 µM.
In assay [2], `CN[C@@H](C)C(=O)N[C@H](C(=O)N1C[C@H](Cc2ccccc2)C[C@H]1C(=O)N[C@@H](Cc1cccc2ccccc12)C(=O)NCCSCc1ccc(CSCCNC(=O)[C@H](Cc2cccc3ccccc23)NC(=O)[C@@H]2C[C@@H](Cc3ccccc3)CN2C(=O)[C@@H](NC(=O)[C@H](C)NC)C(C)(C)C)cc1)C(C)(C)C` [SMAC14-2X, (N^MeAla-Tle-(4-Bzl)Pro-^1Nal-NHCH2CH2S)2—(CH2)2Ph] returned an EC50 of 3.5 ± 1.6 µM.
In assay [2], `CN[C@@H](C)C(=O)N[C@H](C(=O)N1C[C@H](Cc2ccccc2)C[C@H]1C(=O)N[C@@H](Cc1ccc(-c2ccccc2)cc1)C(=O)NCCSCc1ccc(CSCCNC(=O)[C@H](Cc2ccc(-c3ccccc3)cc2)NC(=O)[C@@H]2C[C@@H](Cc3ccccc3)CN2C(=O)[C@@H](NC(=O)[C@H](C)NC)C(C)(C)C)cc1)C(C)(C)C` [SMAC17-2X, (N^MeAla-Tle-(4-Bzl)Pro-Bip-NHCH2CH2S)2—(CH2)2Ph] registered an EC50 of 1.7 ± 0.4 µM.
`CN[C@@H](C)C(=O)N[C@H](C(=O)N1C[C@H](Cc2ccccc2)C[C@H]1C(=O)N[C@@H](Cc1c2ccccc2cc2ccccc12)C(=O)NCCS)C(C)(C)C` [SMAC18, N^MeAla-Tle-(4-Bzl)Pro-Ant-NHCH2CH2SH] (H-[NMeA][Tle][Pro(4R-Bn)][Ala(9-anthryl)]-Cysteamide) showed an EC50 in assay [1] of 17.3 ± 1 µM.

For orientation: EC50 means the midpoint of the concentration-response curve. Lower therefore signals higher potency in that assay.
